Test results from paper PMC5218480 (PLoS ONE, 2017).

System: MV-4-11 cells
Experiment: Gene expression microarray analysis (Affymetrix PrimeView) and GSEA
Type: cell-based, human
Design: RFU PODN (11730768_x_at) / Fold change /veh PODN (11730768_x_at) / RFU LINC00158 (11744669_a_at) / Fold change /veh LINC00158 (11744669_a_at) / RFU DUSP10 (11751237_a_at) / Fold change /veh DUSP10 (11751237_a_at) / RFU ID3 (11757404_x_at) / Fold change /veh ID3 (11757404_x_at) / RFU PLEKHG5 (11737974_s_at) / Fold change /veh PLEKHG5 (11737974_s_at) / RFU LRRC4B (11730491_at) / Fold change /veh LRRC4B (11730491_at) / RFU GIMAP4 (11747438_a_at) / Fold change /veh GIMAP4 (11747438_a_at) / RFU KRT8 (11758183_x_at) / Fold change /veh KRT8 (11758183_x_at) / RFU CNN1 (11734310_a_at) / Fold change /veh CNN1 (11734310_a_at) / RFU VPS37D (11726825_at) / Fold change /veh VPS37D (11726825_at) / RFU C10orf10 (11716522_x_at) / Fold change /veh C10orf10 (11716522_x_at) / RFU KIR2DL2 /// KIR2DL4 /// KIR2DL5A /// KIR2DL5B /// KIR2DS1 /// KIR2DS2 /// KIR2DS3 /// KIR2DS4 /// KIR3DL3 /// KIR3DL3 /// KIR3DS1 (11738374_at) / Fold change /veh KIR2DL2 /// KIR2DL4 /// KIR2DL5A /// KIR2DL5B /// KIR2DS1 /// KIR2DS2 /// KIR2DS3 /// KIR2DS4 /// KIR3DL3 /// KIR3DL3 /// KIR3DS1 (11738374_at) / RFU C1QL1 (11718748_at) / Fold change /veh C1QL1 (11718748_at) / RFU TMPRSS4 (11747572_a_at) / Fold change /veh TMPRSS4 (11747572_a_at) / RFU HAMP (11756126_x_at) / Fold change /veh HAMP (11756126_x_at) / RFU RNFT2 (11725882_a_at) / Fold change /veh RNFT2 (11725882_a_at) / RFU NR4A2 (11747474_a_at) / Fold change /veh NR4A2 (11747474_a_at) / RFU ABCC12 (11746883_a_at) / Fold change /veh ABCC12 (11746883_a_at) / RFU TMEM136 (11760407_x_at) / Fold change /veh TMEM136 (11760407_x_at) / RFU CLDN22 /// WWC2 (11732394_at) / Fold change /veh CLDN22 /// WWC2 (11732394_at) / RFU HLA-DPB1 (11760878_x_at) / Fold change /veh HLA-DPB1 (11760878_x_at) / RFU SPINT1 (11716480_a_at) / Fold change /veh SPINT1 (11716480_a_at) / RFU GAP43 (11754022_s_at) / Fold change /veh GAP43 (11754022_s_at) / RFU A4GNT (11735810_at) / Fold change /veh A4GNT (11735810_at) / RFU PRB3 (11715151_x_at) / Fold change /veh PRB3 (11715151_x_at) / RFU TUBB4B (11761932_at) / Fold change /veh TUBB4B (11761932_at) / RFU CAPN14 (11732068_a_at) / Fold change /veh CAPN14 (11732068_a_at) / RFU TMCC2 (11721928_a_at) / Fold change /veh TMCC2 (11721928_a_at) / RFU IRGQ (11745062_a_at) / Fold change /veh IRGQ (11745062_a_at) / RFU FAM174B (11720279_a_at) / Fold change /veh FAM174B (11720279_a_at) / RFU TMPRSS4 (11748680_a_at) / Fold change /veh TMPRSS4 (11748680_a_at) / RFU FAM212B (11763350_a_at) / Fold change /veh FAM212B (11763350_a_at) / RFU PLEKHG5 (11743358_a_at) / Fold change /veh PLEKHG5 (11743358_a_at) / RFU ZSCAN30 (11745921_a_at) / Fold change /veh ZSCAN30 (11745921_a_at) / RFU CMKLR1 (11741424_a_at) / Fold change /veh CMKLR1 (11741424_a_at) / RFU LOC101060620 /// MAPK8IP1 (11723275_at) / Fold change /veh LOC101060620 /// MAPK8IP1 (11723275_at) / RFU SPTSSB (11747773_x_at) / Fold change /veh SPTSSB (11747773_x_at) / RFU PRSS12 (11739890_at) / Fold change /veh PRSS12 (11739890_at) / RFU BIN1 (11741810_x_at) / Fold change /veh BIN1 (11741810_x_at) / RFU WNT11 (11732464_a_at) / Fold change /veh WNT11 (11732464_a_at) / RFU C10orf10 (11716521_a_at) / Fold change /veh C10orf10 (11716521_a_at) / RFU C5orf56 (11738089_at) / Fold change /veh C5orf56 (11738089_at) / RFU CYB561 (11721691_x_at) / Fold change /veh CYB561 (11721691_x_at) / RFU ANKRD19P (11752326_a_at) / Fold change /veh ANKRD19P (11752326_a_at) / RFU OR2T12 /// OR2T33 /// OR2T8 (11738714_s_at) / Fold change /veh OR2T12 /// OR2T33 /// OR2T8 (11738714_s_at) / RFU VCAN (11748164_a_at) / Fold change /veh VCAN (11748164_a_at) / RFU JSRP1 (11732532_at) / Fold change /veh JSRP1 (11732532_at) / RFU KRTAP10-11 (11738290_x_at) / Fold change /veh KRTAP10-11 (11738290_x_at) / RFU MYO3A (11730013_a_at) / Fold change /veh MYO3A (11730013_a_at) / RFU EBF3 (11725865_a_at) / Fold change /veh EBF3 (11725865_a_at) / RFU CAMK2N1 (11719241_x_at) / Fold change /veh CAMK2N1 (11719241_x_at) / RFU C5orf56 (11738088_a_at) / Fold change /veh C5orf56 (11738088_a_at) / RFU OLFML3 (11715873_a_at) / Fold change /veh OLFML3 (11715873_a_at) / RFU LOC100653217 /// NTM (11731650_a_at) / Fold change /veh LOC100653217 /// NTM (11731650_a_at) / RFU MAPK11 (11762145_a_at) / Fold change /veh MAPK11 (11762145_a_at) / RFU FIZ1 (11724087_x_at) / Fold change /veh FIZ1 (11724087_x_at) / RFU OASL (11726364_x_at) / Fold change /veh OASL (11726364_x_at) / RFU SOX15 (11748057_x_at) / Fold change /veh SOX15 (11748057_x_at) / RFU CD79A (11719716_a_at) / Fold change /veh CD79A (11719716_a_at) / RFU HIST1H1D (11736915_at) / Fold change /veh HIST1H1D (11736915_at) / RFU CASKIN2 (11723855_a_at) / Fold change /veh CASKIN2 (11723855_a_at) / RFU LOC730098 (11760151_x_at) / Fold change /veh LOC730098 (11760151_x_at) / RFU OR4N2 (11742367_at) / Fold change /veh OR4N2 (11742367_at) / RFU PRRT2 (11749266_a_at) / Fold change /veh PRRT2 (11749266_a_at) / RFU SNX32 (11753110_a_at) / Fold change /veh SNX32 (11753110_a_at) / RFU CDHR5 (11726645_a_at) / Fold change /veh CDHR5 (11726645_a_at) / RFU RCAN1 (11760418_a_at) / Fold change /veh RCAN1 (11760418_a_at) / RFU FAM167A (11723789_a_at) / Fold change /veh FAM167A (11723789_a_at) / RFU FAM26E (11764081_at) / Fold change /veh FAM26E (11764081_at) / RFU ISYNA1 (11749810_s_at) / Fold change /veh ISYNA1 (11749810_s_at) / RFU ACY1 (11761880_at) / Fold change /veh ACY1 (11761880_at) / RFU 11764098_at / Fold change /veh 11764098_at / RFU SAMD14 (11745864_x_at) / Fold change /veh SAMD14 (11745864_x_at) / RFU NPB (11741838_a_at) / Fold change /veh NPB (11741838_a_at) / RFU TMPRSS6 (11731388_a_at) / Fold change /veh TMPRSS6 (11731388_a_at) / RFU KRTAP10-2 (11738614_at) / Fold change /veh KRTAP10-2 (11738614_at) / RFU ARHGAP8 /// PRR5-ARHGAP8 (11727945_x_at) / Fold change /veh ARHGAP8 /// PRR5-ARHGAP8 (11727945_x_at) / RFU KRTAP5-7 /// NADSYN1 (11734609_at) / Fold change /veh KRTAP5-7 /// NADSYN1 (11734609_at) / RFU RASL12 (11751679_a_at) / Fold change /veh RASL12 (11751679_a_at) / RFU CDKN2B (11736163_a_at) / Fold change /veh CDKN2B (11736163_a_at) / RFU PRF1 (11729649_at) / Fold change /veh PRF1 (11729649_at) / RFU, ZNF638 /// ZNF638-IT1 / Fold change vs veh, ZNF638 /// ZNF638-IT1 / RFU, PANK3 / Fold change vs veh, PANK3 / RFU, SH3YL1 / Fold change vs veh, SH3YL1 / RFU, ZEB2 / Fold change vs veh, ZEB2 / RFU, NRIP1 / Fold change vs veh, NRIP1 / RFU, PTTG1IP / Fold change vs veh, PTTG1IP / RFU, CAPN2 / Fold change vs veh, CAPN2 / RFU, MED14 / Fold change vs veh, MED14 / RFU, SNORA58 / Fold change vs veh, SNORA58 / RFU, C1orf63 / Fold change vs veh, C1orf63 / RFU, LRRFIP1 / Fold change vs veh, LRRFIP1 / RFU, NDUFAF7 / Fold change vs veh, NDUFAF7 / RFU, SLC12A2 / Fold change vs veh, SLC12A2 / RFU, IBTK / Fold change vs veh, IBTK / RFU, ESF1 / Fold change vs veh, ESF1 / Fold change vs veh, TMEM50B / RFU, TAOK1 / Fold change vs veh, TAOK1 / RFU, ACBD3 / Fold change vs veh, ACBD3 / RFU, TMA16 / Fold change vs veh, TMA16 / RFU, RWDD3 / Fold change vs veh, RWDD3 / RFU, BCAT1 / Fold change vs veh, BCAT1 / RFU, EDEM3 / Fold change vs veh, EDEM3 / RFU, TMEM33 / Fold change vs veh, TMEM33 / RFU, WDR75 / Fold change vs veh, WDR75 / RFU, AHCTF1 / Fold change vs veh, AHCTF1 / RFU, TFRC / Fold change vs veh, TFRC / RFU, ZDHHC17 / Fold change vs veh, ZDHHC17 / RFU, NOM1 / Fold change vs veh, NOM1 / RFU, ARL8B / Fold change vs veh, ARL8B / RFU, ZBTB11 / Fold change vs veh, ZBTB11 / RFU, TAMM41 / Fold change vs veh, TAMM41 / RFU, KIAA1704 /// LOC100996395 / Fold change vs veh, KIAA1704 /// LOC100996395 / RFU, ING1 / Fold change vs veh, ING1 / RFU, TRMT61B / Fold change vs veh, TRMT61B / RFU, FUBP3 / Fold change vs veh, FUBP3 / RFU, TP53 / Fold change vs veh, TP53 / RFU, TNKS2 / Fold change vs veh, TNKS2 / RFU, ZFP14 / Fold change vs veh, ZFP14 / RFU, ACTR2 / Fold change vs veh, ACTR2 / RFU, PPP3R1 / Fold change vs veh, PPP3R1 / RFU, PIK3R1 / Fold change vs veh, PIK3R1 / RFU, HNRNPA1 / Fold change vs veh, HNRNPA1 / RFU, RNF170 / Fold change vs veh, RNF170 / RFU, ZNF28 / Fold change vs veh, ZNF28 / RFU, RNGTT / Fold change vs veh, RNGTT / RFU, OGT / Fold change vs veh, OGT / RFU, BRD1 / Fold change vs veh, BRD1 / RFU, MARS / Fold change vs veh, MARS / RFU, ZNF655 / Fold change vs veh, ZNF655 / RFU, FAHD1 / Fold change vs veh, FAHD1 / RFU, BDP1 / Fold change vs veh, BDP1 / RFU, LRRCC1 / Fold change vs veh, LRRCC1 / RFU, ARID1A / Fold change vs veh, ARID1A / RFU, ZNF146 / Fold change vs veh, ZNF146 / RFU, ZNF330 / Fold change vs veh, ZNF330 / RFU, GPN3 / Fold change vs veh, GPN3 / RFU, C9orf123 / Fold change vs veh, C9orf123 / RFU, N4BP2L2 / Fold change vs veh, N4BP2L2 / RFU, ARFIP1 / Fold change vs veh, ARFIP1 / RFU, FAM179B / Fold change vs veh, FAM179B / RFU, BCL10 / Fold change vs veh, BCL10 / RFU, UHRF1BP1L / Fold change vs veh, UHRF1BP1L / RFU, BET1 / Fold change vs veh, BET1 / RFU, CNOT2 / Fold change vs veh, CNOT2 / RFU, ZNF268 / Fold change vs veh, ZNF268 / Fold change vs veh, ZNF507 / RFU, DGCR2 / Fold change vs veh, DGCR2 / RFU, WDSUB1 / Fold change vs veh, WDSUB1 / Fold change vs veh, HSP90B1 /// MIR3652 / RFU, ADSS / Fold change vs veh, ADSS / RFU, GK / Fold change vs veh, GK / RFU, ZNF148 / Fold change vs veh, ZNF148 / RFU, TAF9 / Fold change vs veh, TAF9 / RFU, SLC1A5 / Fold change vs veh, SLC1A5 / RFU, SLMO2 / Fold change vs veh, SLMO2 / RFU, ABCC4 / Fold change vs veh, ABCC4 / RFU, LOC101060439 /// RAP1B / Fold change vs veh, LOC101060439 /// RAP1B / RFU, RFX7 / Fold change vs veh, RFX7 / RFU, GTPBP10 / Fold change vs veh, GTPBP10 / RFU, CNEP1R1 / Fold change vs veh, CNEP1R1 / RFU, BIVM-ERCC5 /// ERCC5 / Fold change vs veh, BIVM-ERCC5 /// ERCC5 / RFU, ILF3 / Fold change vs veh, ILF3 / RFU 11762660_at / Fold change /veh 11762660_at / RFU VCAN (11757783_s_at) / Fold change /veh VCAN (11757783_s_at) / RFU DDX43 (11728927_at) / Fold change /veh DDX43 (11728927_at) / RFU KRT8 (11758188_x_at) / Fold change /veh KRT8 (11758188_x_at) / RFU NKD1 (11759106_at) / Fold change /veh NKD1 (11759106_at) / RFU SRD5A1 (11742802_a_at) / Fold change /veh SRD5A1 (11742802_a_at) / RFU TPSAB1 /// TPSB2 (11721975_s_at) / Fold change /veh TPSAB1 /// TPSB2 (11721975_s_at) / RFU GSTM3 (11746129_a_at) / Fold change /veh GSTM3 (11746129_a_at) / RFU IL23R (11737362_x_at) / Fold change /veh IL23R (11737362_x_at) / RFU TMEM51 (11727254_a_at) / Fold change /veh TMEM51 (11727254_a_at) / RFU PIWIL2 (11732686_x_at) / Fold change /veh PIWIL2 (11732686_x_at) / RFU ORM1 (11744905_x_at) / Fold change /veh ORM1 (11744905_x_at) / RFU CCDC152 (11743942_at) / Fold change /veh CCDC152 (11743942_at) / RFU ECM1 (11717891_a_at) / Fold change /veh ECM1 (11717891_a_at) / RFU IL23R (11748794_a_at) / Fold change /veh IL23R (11748794_a_at) / RFU TNFAIP8L3 (11732012_x_at) / Fold change /veh TNFAIP8L3 (11732012_x_at) / RFU MBOAT4 (11741988_at) / Fold change /veh MBOAT4 (11741988_at) / RFU 11764193_at / Fold change /veh 11764193_at / RFU TMEM53 (11763286_at) / Fold change /veh TMEM53 (11763286_at) / RFU MAGEB2 (11727129_at) / Fold change /veh MAGEB2 (11727129_at) / RFU TMEM200A (11744735_a_at) / Fold change /veh TMEM200A (11744735_a_at) / RFU CCDC152 (11751479_a_at) / Fold change /veh CCDC152 (11751479_a_at) / RFU FAM211A (11726209_a_at) / Fold change /veh FAM211A (11726209_a_at) / RFU RGS16 (11746705_a_at) / Fold change /veh RGS16 (11746705_a_at) / RFU VCAN (11755009_s_at) / Fold change /veh VCAN (11755009_s_at) / RFU RHOB (11743442_s_at) / Fold change /veh RHOB (11743442_s_at) / RFU RGS16 (11720943_a_at) / Fold change /veh RGS16 (11720943_a_at) / RFU RGS16 (11720944_at) / Fold change /veh RGS16 (11720944_at) / RFU, VPS4B / Fold change vs veh, VPS4B / RFU, CREB1 / Fold change vs veh, CREB1 / RFU, DNAJC13 / Fold change vs veh, DNAJC13 / RFU, GNAQ / Fold change vs veh, GNAQ / RFU, CDK5R1 / Fold change vs veh, CDK5R1 / RFU, ZRANB3 / Fold change vs veh, ZRANB3 / RFU, CUL4A / Fold change vs veh, CUL4A / RFU, CCNY / Fold change vs veh, CCNY / RFU, UFL1 / Fold change vs veh, UFL1 / RFU, COG3 / Fold change vs veh, COG3 / RFU, DIAPH2 / Fold change vs veh, DIAPH2 / RFU, SKA2 / Fold change vs veh, SKA2 / RFU, AFF3 / Fold change vs veh, AFF3 / RFU, LMF1 / Fold change vs veh, LMF1 / RFU, IPO11 / Fold change vs veh, IPO11 / RFU, DFFB / Fold change vs veh, DFFB / RFU, FOXP1 / Fold change vs veh, FOXP1 / RFU, CARD8 / Fold change vs veh, CARD8 / RFU, STRN3 / Fold change vs veh, STRN3 / RFU, ADK / Fold change vs veh, ADK / RFU, RASSF2 / Fold change vs veh, RASSF2 / RFU, WIPF1 / Fold change vs veh, WIPF1 / RFU, LARP1B / Fold change vs veh, LARP1B / RFU, RASA1 / Fold change vs veh, RASA1 / RFU, RB1 / Fold change vs veh, RB1 / RFU, PPFIA1 / Fold change vs veh, PPFIA1 / RFU, MAT2A / Fold change vs veh, MAT2A / RFU, CCT5 / Fold change vs veh, CCT5 / RFU, WDR92 / Fold change vs veh, WDR92 / RFU, CUX1 / Fold change vs veh, CUX1 / RFU, TTC7A / Fold change vs veh, TTC7A / RFU, TMEM135 / Fold change vs veh, TMEM135 / RFU, DEPTOR / Fold change vs veh, DEPTOR / RFU, CPM / Fold change vs veh, CPM / RFU, DNAJB6 / Fold change vs veh, DNAJB6 / RFU, CACNA2D3 / Fold change vs veh, CACNA2D3 / RFU, DTX4 / Fold change vs veh, DTX4 / RFU, TFCP2 / Fold change vs veh, TFCP2 / RFU, GMCL1 /// GMCL1P1 / Fold change vs veh, GMCL1 /// GMCL1P1 / RFU, AEBP2 / Fold change vs veh, AEBP2 / RFU, SNHG1 /// SNORD22 /// SNORD25 /// SNORD26 /// SNORD27 /// SNORD28 /// SNORD29 /// SNORD31 / Fold change vs veh, SNHG1 /// SNORD22 /// SNORD25 /// SNORD26 /// SNORD27 /// SNORD28 /// SNORD29 /// SNORD31 / Fold change (Aza/veh), C12orf56 (ProbeSet 11735607_a_at) / Fold change (ACY-1035/veh), C12orf56 (ProbeSet 11735607_a_at) / Fold change (Aza/veh), FGFR1OP (ProbeSet 11751329_s_at) / Fold change (ACY-1035/veh), FGFR1OP (ProbeSet 11751329_s_at) / Fold change (Aza/veh), VPS36 (ProbeSet 11739960_a_at) / Fold change (ACY-1035/veh), VPS36 (ProbeSet 11739960_a_at) / RFU SYPL1 (11715823_x_at) / Fold change /veh SYPL1 (11715823_x_at) / RFU IGFBP7 (11715501_s_at) / Fold change /veh IGFBP7 (11715501_s_at) / RFU REEP3 (11722064_at) / Fold change /veh REEP3 (11722064_at) / RFU IGLL1 (11728026_x_at) / Fold change /veh IGLL1 (11728026_x_at): dose or concentration left out as unconfirmed
Settings: ProbeSet 11732165_x_at; LIST D

## Nc1ncn([C@@H]2O[C@H](CO)[C@@H](O)[C@H]2O)c(=O)n1 [azacitidine]
  RFU, LMF1: 50.31 RFU
